Reference: patent US9963462B2 (priority 2015, dated 2018)

Tested on: BH4 levels in SK-N-BE (2) cells
Assay: SKN-N-BE (2) cellular assay, BH4 levels by LC-MS
Type: cell-based
Conditions: Homo sapiens, SKNBE2, read-out: SK-N-BE(2) IC50, SK-N-BE (2) cells, BH4 levels by LC-MS
Experimental: SKN-N-BE(2) Cellular Assay: SK-N-BE (2) cells were seeded in sterile, 96-well plates and incubated for 12-24 hours at 37° C. with 5% CO2 supply. Media was removed and fresh DMEM/F-12 media (containing Glutamine & Pen/Strep but no FBS) was added. Compounds (at different concentrations) were added to different wells. The plates were then incubated for 6-48 hours at 37° C. with 5% CO2 supply. Plates were then centrifuged and the supernatant was removed. The plates were then optionally washed once with PBS. They were then sealed and stored at −80° C. or immediately used. The cells were lysed and the level of BH4 was assessed by LC-MS.
Compounds were assayed for SPR inhibitory activity using a SKN-N-BE (2) cellular assay according to the following procedure. SK-N-BE (2) cells were seeded in sterile, 96-well plates and incubated for 12-24 hours at 37° C. with 5% CO2 supply. Media was removed and fresh DMEM/F-12 media (containing Glutamine & Pen/Strep but no FBS) was added. Compounds (at different concentrations) were added to different wells. The plates were then incubated for 6-48 hours at 37° C. with 5% CO2 supply. Plates were then centrifuged and the supernatant was removed. The plates were then optionally washed once with PBS. They were then sealed and stored at −80° C. or immediately used in the next step. The cells were lysed and the levels of BH4 were assessed by LC-MS.

| Structure (SMILES) | IC50 [nM] |
| --- | --- |
| Cc1c(C(=O)N2CC[C@@H](C(F)(F)F)C[C@H]2C)cnn1-c1nc2c(c(=O)[nH]1)CCC2 (single isomer, unassigned) [Q-0442] | 200 |
| Cc1c(C(=O)N2CC[C@H](C(F)(F)F)C[C@@H]2C)cnn1-c1nc2c(c(=O)[nH]1)CCC2 (single isomer, unassigned) [Q-0459] | 59 |
| Cc1c(C(=O)N2CCC(C(F)(F)F)CC2)cnn1-c1nc2ncsc2c(=O)[nH]1 [Q-0433] | 58000 |
| Cc1c(C(=O)N2CCC(C(F)(F)F)CC2)cnn1-c1nn2cccc2c(=O)[nH]1 [Q-0533] | 69 |
| CCCC(C#N)C1CCN(C(=O)c2cnn(-c3nn4cccc4c(=O)[nH]3)c2C)CC1 (centres unmarked) [Q-0858] | 44 |
| Cc1c(C(=O)N2C[C@H]3C[C@@H]2CN3C(=O)OC(C)(C)C)cnn1-c1nn2cccc2c(=O)[nH]1 [Q-0860] | 1000 |
| Cc1c(C(=O)N2CC(CN(C)C(=O)OC(C)(C)C)C2)cnn1-c1nn2cccc2c(=O)[nH]1 [Q-0861] | 400 |
| Cc1c(C(=O)N2CCN3C(=O)CC[C@@H]3C2)cnn1-c1nn2cccc2c(=O)[nH]1 [Q-0862] | 10000 |
| O=C(c1cnn(-c2nn3c(F)ccc3c(=O)[nH]2)c1C1CC1)N1CCC1 [Q-0863] | 600 |
| Cc1c(C(=O)N2CCC3C(CCN3C(=O)OC(C)(C)C)C2)cnn1-c1nn2cccc2c(=O)[nH]1 (centres unmarked) [Q-0865] | 100 |
| Cc1c(C(=O)N2CCn3ccnc3C2)cnn1-c1nn2cccc2c(=O)[nH]1 [Q-0866] | 6700 |
| Cc1c(C(=O)N2CCn3c(nnc3C3CC3)C2)cnn1-c1nn2cccc2c(=O)[nH]1 [Q-0868] | 10000 |
| Cc1c(C(=O)N2C3CCC2CN(c2ccc(C#N)cc2)C3)cnn1-c1nn2cccc2c(=O)[nH]1 [Q-0869] | 100 |
| Cc1c(C(=O)N2C3CCC2CN(c2ccc(C(F)(F)F)cc2)C3)cnn1-c1nn2cccc2c(=O)[nH]1 [Q-0870] | 300 |
| Cc1c(C(=O)N2CCn3cc(C(F)(F)F)nc3C2)cnn1-c1nn2cccc2c(=O)[nH]1 [Q-0871] | 4000 |
| Cc1c(C(=O)N2CCN3C(=O)CC[C@H]3C2)cnn1-c1nn2cccc2c(=O)[nH]1 [Q-0872] | 10000 |
| Cc1c(C(=O)N2CCn3cncc3C2)cnn1-c1nn2cccc2c(=O)[nH]1 [Q-0873] | 10000 |
| Cc1c(C(=O)N2CC3CC(C#N)CC3C2)cnn1-c1nn2cccc2c(=O)[nH]1 (centres unmarked) [Q-0874] | 1100 |
| Cc1c(C(=O)N2C3CCC2CN(c2ccccc2)C3)cnn1-c1nn2cccc2c(=O)[nH]1 [Q-0875] | 76 |

| Structure (SMILES) | IC50 [nM] |
| --- | --- |
| Cc1c(C(=O)N2C3CCC2CN(c2cccc(F)c2)C3)cnn1-c1nn2cccc2c(=O)[nH]1 [Q-0876] | 88 |
| Cc1c(C(=O)N2C3CCC2CN(c2ccc(C#N)cn2)C3)cnn1-c1nn2cccc2c(=O)[nH]1 [Q-0877] | 200 |
| Cc1c(C(=O)N2CC3CCN(C(=O)OC(C)(C)C)C3C2)cnn1-c1nn2cccc2c(=O)[nH]1 (centres unmarked) [Q-0878] | 800 |
| Cc1c(C(=O)N2CC3CC(C(N)=O)CC3C2)cnn1-c1nn2cccc2c(=O)[nH]1 (centres unmarked) [Q-0879] | 10000 |
| Cc1c(C(=O)N2C3CCC2CN(c2ccc(F)cc2)C3)cnn1-c1nn2cccc2c(=O)[nH]1 [Q-0880] | 87 |
| Cc1c(C(=O)N2CCN3CCC[C@@]3(C)C2)cnn1-c1nn2cccc2c(=O)[nH]1 [Q-0881] | 2300 |
| Cc1c(C(=O)N2C3CCC2CN(c2ccccn2)C3)cnn1-c1nn2cccc2c(=O)[nH]1 [Q-0882] | 200 |
| Cc1c(C(=O)N2CCC(C#N)CC2)cnn1-c1nn2cccc2c(=O)[nH]1 [Q-0883] | 1300 |
| CCN1CC2CCC(C1)N2C(=O)c1cnn(-c2nn3cccc3c(=O)[nH]2)c1C [Q-0884] | 200 |
| Cc1c(C(=O)N2CCN(C(=O)OC(C)(C)C)CC2C)cnn1-c1nn2cccc2c(=O)[nH]1 (centres unmarked) [Q-0885] | 400 |
| Cc1c(C(=O)N2CCC(N3CCCC3)CC2)cnn1-c1nn2cccc2c(=O)[nH]1 [Q-0886] | 5400 |
| Cc1c(C(=O)N2CCC(OCc3ccc(F)cc3)CC2)cnn1-c1nn2cccc2c(=O)[nH]1 [Q-0893] | 300 |
| Cc1c(C(=O)N2C3CCC2CN(c2ccc(Cl)cc2)C3)cnn1-c1nn2cccc2c(=O)[nH]1 [Q-0894] | 100 |
| Cc1c(C(=O)N2CCN(CCC#N)CC2)cnn1-c1nn2cccc2c(=O)[nH]1 [Q-0895] | 1400 |
| Cc1c(C(=O)N2CC[C@@H]3CN(C(=O)OC(C)(C)C)C[C@@H]32)cnn1-c1nn2cccc2c(=O)[nH]1 [Q-0897] | 500 |
| Cc1c(C(=O)N2CCC23CC(F)(F)C3)cnn1-c1nn2cccc2c(=O)[nH]1 [Q-0900] | 2300 |
| Cc1c(C(=O)N2CCN(CCS(C)(=O)=O)CC2)cnn1-c1nn2cccc2c(=O)[nH]1 [Q-0901] | 10000 |
| Cc1c(C(=O)N2CC3CC(C(F)(F)F)CC3C2)cnn1-c1nn2cccc2c(=O)[nH]1 (centres unmarked) [Q-0902] | 100 |
| Cc1c(C(=O)N2CCC3(CC2)CC3c2nnc(-c3cccc(F)c3)o2)cnn1-c1nn2cccc2c(=O)[nH]1 (centres unmarked) [Q-0905] | 600 |
